In patent publication US6013244A, “21-(2-oxo-tetrahydrofuran)-thio pregnane derivatives, a process for their production and pharmaceutical compositions containing them” (Glaxo Wellcome Inc., priority 1995, dated 2000):

Experiments:
[1] = biological target: T1, Human Glucocorticoid Receptor (Homo sapiens, UniProt P04150); experiment: functional in vitro glucocorticoid assay, MMTV-sPAP reporter gene in transfected Hela cells; assay type: cell-based
T1 construct: endogenous in cells; host or cells: HeLa cells stably transfected with the MMTV-LTR/sPAP reporter
T1 sequence (P04150 1-777): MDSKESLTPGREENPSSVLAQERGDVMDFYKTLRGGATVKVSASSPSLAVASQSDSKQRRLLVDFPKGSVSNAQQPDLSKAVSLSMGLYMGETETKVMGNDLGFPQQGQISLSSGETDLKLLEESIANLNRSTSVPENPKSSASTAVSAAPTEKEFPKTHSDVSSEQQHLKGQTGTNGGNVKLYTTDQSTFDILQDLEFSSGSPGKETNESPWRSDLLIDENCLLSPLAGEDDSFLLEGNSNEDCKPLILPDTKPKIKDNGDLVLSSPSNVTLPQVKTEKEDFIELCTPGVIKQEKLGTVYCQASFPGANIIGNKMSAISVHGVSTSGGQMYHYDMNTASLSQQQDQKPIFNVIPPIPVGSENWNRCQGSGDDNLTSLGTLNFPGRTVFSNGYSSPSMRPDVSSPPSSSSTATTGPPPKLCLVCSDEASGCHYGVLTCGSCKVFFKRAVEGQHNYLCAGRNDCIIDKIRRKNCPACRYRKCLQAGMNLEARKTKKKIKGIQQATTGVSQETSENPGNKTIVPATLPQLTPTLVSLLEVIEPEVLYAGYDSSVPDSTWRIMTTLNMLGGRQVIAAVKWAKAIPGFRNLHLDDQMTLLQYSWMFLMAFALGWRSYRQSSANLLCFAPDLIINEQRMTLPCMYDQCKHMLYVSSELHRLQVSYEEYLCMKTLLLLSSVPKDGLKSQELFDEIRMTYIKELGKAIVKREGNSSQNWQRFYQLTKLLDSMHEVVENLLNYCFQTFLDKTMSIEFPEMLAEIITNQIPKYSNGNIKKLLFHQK
Procedure: The functional assay used was a modification of the method described by T. S Berger et al, of J. of Steroid Biochem. Molec.
Thus, Hela cells were stably transfected with a detectable reporter gene (secreted placental alkaline phosphatase, sPAP) under the control of a glucocorticoid response promoter (the LTR of the mouse mammary tumour virus, MMTV). Various concentrations of standard (dexamethasone) or compounds of the invention were incubated with transfected Hela cells for 72 hours. At the end of the incubation, substrate ([…]) for sPAP was added and the product measured by a spectrophotometric method. Increased absorbance reflected increased sPAP transcription and concentration-response lines were constructed such that EC50 -values could be estimated.

[2] = tested on: lung eosinophilia; experiment: Inhibition of lung eosinophilia in Brown Norway rats; assay type: in vivo; conditions: OVA-sensitised male Brown Norway rats, lung lavage on day 16
Procedure: (i) Anti-inflammatory Activity--Inhibition of lung eosinophilia in Brown Norway rats
Male Brown norway rats (150-180 g) are sensitised with 1 ml intra-peritoneally (ip) containing 10 mg Al (OH)3 +1 mg Ovalbumin (OVA) on day 1. On day 7 each rat received 1 ml ip containing 10 mg Al(OH)3 +100 ug OVA. On day 14, each rat received an intratracheal (IT) dose of compound or vehicle (0.2 ml), under isoflurane anaesthesia. Compounds are suspended in 0.9% saline/0.2% Tween 80. 4 h after compound administration, each animal receives 400 ug OVA in saline IT (0.2 ml). On day 16, animals are killed and the lungs lavaged with 5 mls of lavage fluid (10 mM EDTA, phosphate buffered saline (pH 7.4), 5 units heparin/ml, 0.1% BSA). The samples are centrifuged at 1000 RPM for 10 minutes. The supernatant is removed and the cells resuspended in 0.5 ml lavage fluid. Total cells are counted with a Sysmex counter. Cytospin slides are prepared using 75 ul of the cell suspension and the cells are stained with May-Grunwald stain. Differential cell counts are performed using a microscope. Numbers of eosinophils are calculated per ul of lavage fluid per rat allowing percentage reduction in eosinophilia to be calculated.

[3] = tested on: Adrenocorticotrophic hormone (ACTH); experiment: Systemic Effects - ACTH Suppression in Adrenalectomised Rats; assay type: in vivo; conditions: adrenalectomised male CD rats, plasma
Procedure: (II) Systemic Effects--ACTH Suppression in Adrenalectomised Rats
Male CD rats (90-120 g) were adrenalectomised under Isoflurane anaesthesia and drinking water was supplemented with 0.9% saline. Four days later the animals receive a single intravenous dose of compound dissolved in DMA/PEG-200/distilled water (1:6:3) (0.2 ml) at 10 am. At 2 h and 4 h afterwards animals are sacrificed by administration of Euthetal and blood samples are taken by intra-cardiac puncture and collected into heparinised tubes. The samples are centrifuged (20 minutes at 1000 RPM at 4 deg C), the plasma is collected and assayed by Radioimmunoassay (RIA) for Adrenocorticotrophic hormone (ACTH) using a DPC double antibody RIA kit. Intact and vehicle control groups for each time point assessed were included in each experiment in order to account for diurnal variation in ACTH and effects of vehicle. Results are calculated with respect to the RIA standard curve and expressed as ACTH pg/ml plasma, allowing percentage reduction in ACTH to be calculated.

[4] = dose 6.25 μg single intravenous

Compound | EC50 [1] [nM] | also measured
CCC[C@@H]1O[C@@H]2C[C@H]3[C@@H]4C[C@H](F)C5=CC(=O)C=C[C@]5(C)[C@@]4(F)[C@@H](O)C[C@]3(C)[C@]2(C(=O)CSC2CCOC2=O)O1 (stereo partly drawn) [Example 7, 16α,17α-(R-Butylidenedioxy)-6α,9α-difluoro-11β-hydroxy-21-(2-oxo-tetrahydro-furan-3-yl-sulfanyl)-pregna-1,4-diene-3,20-dione] | < 600 | –
CCC(=O)O[C@]1(C(=O)CSC2CCOC2=O)[C@H](C)C[C@H]2[C@@H]3C[C@H](F)C4=CC(=O)CC[C@]4(C)[C@@]3(F)[C@@H](O)C[C@@]21C (stereo partly drawn) [Example 2, 6α,9α-Difluoro-11β-hydroxy-16α-methyl-21-(2-oxo-tetrahydro-furan-3-yl-sulfanyl)-17α-propionyloxy-pregn-4-ene-3,20-dione] | < 600 | –
CCC[C@@H]1O[C@@H]2C[C@H]3[C@@H]4C[C@H](F)C5=CC(=O)CC[C@]5(C)[C@@]4(F)[C@@H](O)C[C@]3(C)[C@]2(C(=O)CSC2COC(=O)C2)O1 (stereo partly drawn) [Example 11, 16α,17α-(R-Butylidenedioxy)-6α,9α-difluoro-11β-hydroxy-21-(2-oxo-tetrahydro-furan-4-yl-sulfanyl)-pregn-4-ene-3,20-dione] | < 600 | –
CC1(C)O[C@@H]2C[C@H]3[C@@H]4C[C@H](F)C5=CC(=O)C=C[C@]5(C)[C@@]4(F)[C@@H](O)C[C@]3(C)[C@]2(C(=O)CS[C@H]2CCOC2=O)O1 (single isomer, unassigned) [Example 3 Isomer A, 6α,9α-Difluoro-11β-hydroxy-16α,17α-isopropylidenedioxy-21-(2-oxo-tetrahydro-furan-3S-yl-sulfanyl)-pregna-1,4-diene-3,20-dione] | – | % Reduction in Eosinophilia ([2]; dose 250 μg intratracheal): 74%; % Reduction in Eosinophilia ([2]; dose 750 μg intratracheal): 97%; % Reduction in ACTH at 2 h ([3]; dose 500 μg single intravenous): 16%; % Reduction in ACTH at 4 h ([3]; dose 500 μg single intravenous): 15%
CC1(C)O[C@@H]2C[C@H]3[C@@H]4C[C@H](F)C5=CC(=O)C=C[C@]5(C)[C@@]4(F)[C@@H](O)C[C@]3(C)[C@]2(C(=O)CSC2COC(=O)C2)O1 (stereo partly drawn) [Example 10, 6α,9α-Difluoro-11β-hydroxy-16α,17α-isopropylidenedioxy-21-(2-oxo-tetrahydro-furan4-yl-sulfanyl)-pregna-1,4-diene-3,20-dione] | < 600 | –
CCCC1O[C@@H]2C[C@H]3[C@@H]4CCC5=CC(=O)C=C[C@]5(C)[C@H]4[C@@H](O)C[C@]3(C)[C@]2(C(=O)CSC2CCOC2=O)O1 (single isomer, unassigned) [Example 9 isomer A, 16α,17α-Butylidenedioxy-11β-hydroxy-21-(2-oxo-tetrahydrofuran-3-yl-sulfanyl)-pregna-1,4-diene-3,20-dione] | < 600 | –
CC1(C)O[C@@H]2C[C@H]3[C@@H]4C[C@H](F)C5=CC(=O)CC[C@]5(C)[C@@]4(F)[C@@H](O)C[C@]3(C)[C@]2(C(=O)CSC2CCOC2=O)O1 (stereo partly drawn) [Example 6, 6α,9α-Difluoro-11β-hydroxy-16α,17α-isopropylidenedioxy-21-(2-oxo-tetrahydro-furan-3-yl-sulfanyl)-pregn-4-ene-3,20-dione] | < 600 | –
CCCC1O[C@@H]2C[C@H]3[C@@H]4CCC5=CC(=O)C=C[C@]5(C)[C@H]4[C@@H](O)C[C@]3(C)[C@]2(C(=O)CO)O1 (stereo partly drawn) [Budesonide, reference compound] | – | % Reduction in Eosinophilia ([2]; dose 250 μg intratracheal): 82%; % Reduction in ACTH at 2 h [3, 4]: 61%; % Reduction in ACTH at 4 h [3, 4]: 32%
CCC[C@@H]1O[C@@H]2C[C@H]3[C@@H]4C[C@H](F)C5=CC(=O)CC[C@]5(C)[C@@]4(F)[C@@H](O)C[C@]3(C)[C@]2(C(=O)CSC2CCOC2=O)O1 (stereo partly drawn) [Example 8, 16α,17α-(R-Butylidenedioxy)-6α,9α-difluoro-11β-hydroxy-21-(2-oxo-tetrahydro-furan-3-yl-sulfanyl)-pregn-4-ene-3,20-dione] | < 600 | –
CCC(=O)O[C@]1(C(=O)CSC2CCOC2=O)[C@H](C)C[C@H]2[C@@H]3C[C@H](F)C4=CC(=O)C=C[C@]4(C)[C@@]3(F)[C@@H](O)C[C@@]21C (stereo partly drawn) [Example 1, 6α,9α-Difluoro-11β-hydroxy-16α-methyl-21-(2-oxo-tetrahydro-furan-3-yl-sulfanyl)-17α-propionyloxy-pregna-1,4-diene-3,20-dione] | < 600 | –
